The values that follow come from article PMC8439242, “Pharmacokinetic study on the interaction between pachymic acid and bavachin and its potential mechanism” (Pharmaceutical Biology, 2021).

For the assay, the system named is T1, CYP2C9.
T1 construct: gene Cyp2c11; 'CYP2C9' is the human name, rat has no CYP2C9, rat Cyp2c forms turn over the diclofenac probe
The experiment in a line: diclofenac probe turnover in rat liver microsomes, LC-MS/MS. The assay is classed as biochemical. To be noted: 50 μM diclofenac; 0.5 mg/mL microsomal protein; 30 min incubation; 0-100 μM inhibitor. Background: Liver microsomes are vesicles of endoplasmic reticulum, rich in cytochrome P450 enzymes.

Each structure is given as a SMILES string.

With `C=C(CC[C@@H](C(=O)O)[C@H]1[C@H](O)C[C@@]2(C)C3=C(CC[C@]12C)[C@@]1(C)CC[C@H](OC(C)=O)C(C)(C)[C@@H]1CC3)C(C)C` [pachymic acid], the IC50 was determined as 21.2 µM.

As a reminder, the IC50 is the midpoint of a concentration-inhibition curve. A low value points to higher potency.
